Our source for the IC50 values is patent US11780893B2, “Kv1.3 blockers” (Zealand Pharma A/S, priority 2019, dated 2023).

SMILES strings stand for the structures. Bridge positions count the residues as written; N and C are the ends. Square brackets hold non-standard residues; d marks the D form. Peptide text beside a SMILES is read from it. Nle = CCCC[C@H](N)C(=O)O

In the test the target is T1, human Kv1.3 voltage-gated K+ channel (Homo sapiens, UniProt P22001).
T1 construct: host or cells: CHO-DUKX
T1 sequence (P22001 whole entry): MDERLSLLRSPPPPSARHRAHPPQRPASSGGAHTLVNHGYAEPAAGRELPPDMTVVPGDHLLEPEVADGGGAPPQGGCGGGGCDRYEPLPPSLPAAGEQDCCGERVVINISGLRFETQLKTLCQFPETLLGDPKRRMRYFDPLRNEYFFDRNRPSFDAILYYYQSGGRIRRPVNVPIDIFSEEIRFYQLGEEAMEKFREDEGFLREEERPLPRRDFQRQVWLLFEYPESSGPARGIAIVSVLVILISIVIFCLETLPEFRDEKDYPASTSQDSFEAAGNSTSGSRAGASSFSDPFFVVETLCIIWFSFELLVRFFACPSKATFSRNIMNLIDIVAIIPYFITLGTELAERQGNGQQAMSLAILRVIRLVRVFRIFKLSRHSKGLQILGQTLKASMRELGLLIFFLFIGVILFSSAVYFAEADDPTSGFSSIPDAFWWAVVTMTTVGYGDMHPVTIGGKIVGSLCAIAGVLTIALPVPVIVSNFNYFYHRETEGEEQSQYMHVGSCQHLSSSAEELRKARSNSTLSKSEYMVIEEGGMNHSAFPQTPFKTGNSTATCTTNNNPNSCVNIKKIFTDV
Nature of the test: cell-based. Conditions: inhibition of thallium flux, CHO-DUKX cells with human Kv1.3; read-out: IC50.
As for `CCCC[C@H](NC(=O)[C@@H]1CCCN1)C(=O)N[C@@H](CCC(=O)O)C(=O)N[C@@H](CCCC)C(=O)N[C@@H](CCCNC(=N)N)C(=O)N[C@H]1CSSC[C@@H]2NC(=O)[C@H](CCCCN)NC(=O)CNC(=O)[C@H](Cc3ccccc3)NC(=O)[C@H]([C@@H](C)CC)NC(=O)[C@H](CO)NC(=O)CNC(=O)[C@H]([C@@H](C)CC)NC(=O)[C@H](C)NC(=O)[C@H](C)NC(=O)[C@H](CC(C)C)NC(=O)[C@@H]3CSSC[C@@H](C(=O)N[C@@H](Cc4ccc(O)cc4)C(=O)N4CCC[C@H]4C(=O)N[C@@H](CCCNC(=N)N)C(=O)N[C@@H](Cc4ccccc4)C(=O)N[C@@H](CCC(=O)O)C(=O)O)NC(=O)[C@H](CCCCN)NC(=O)[C@H](CSSC[C@H](NC(=O)[C@H](CCC(=O)O)NC(=O)[C@H](C(C)C)NC(=O)[C@H](CO)NC(=O)[C@H](C)NC(=O)[C@H](CO)NC1=O)C(=O)N[C@@H](CCCCN)C(=O)N[C@@H](CCC(N)=O)C(=O)N[C@@H](CCCCN)C(=O)N3)NC(=O)[C@H](CCCCN)NC(=O)[C@H](CCCCN)NC(=O)[C@H](CC(N)=O)NC(=O)[C@H](CCCC)NC2=O` [Compound 128] (H-P[Nle]E[Nle]RCSASVECKQKCLAAIGSIFGKC[Nle]NKKCKCYPRFE-OH; disulfide 6-27, 12-32, 16-34), the IC50 (in general, the concentration that inhibits the measured activity by half) was found to be 7.18 nM.

`CCCC[C@H](NC(=O)[C@@H]1CCCN1)C(=O)N[C@@H](CCC(=O)O)C(=O)N[C@@H](CCCC)C(=O)N[C@@H](CCCNC(=N)N)C(=O)N[C@H]1CSSC[C@@H]2NC(=O)[C@H](CCCCN)NC(=O)CNC(=O)[C@H](Cc3ccccc3)NC(=O)[C@H]([C@@H](C)CC)NC(=O)[C@H](CO)NC(=O)CNC(=O)[C@H]([C@@H](C)CC)NC(=O)[C@H](C)NC(=O)[C@H](C)NC(=O)[C@H](CC(C)C)NC(=O)[C@@H]3CSSC[C@@H](C(=O)N[C@@H](Cc4ccc(O)cc4)C(=O)N4CCC[C@H]4C(=O)N[C@@H](CCCNC(=N)N)C(=O)O)NC(=O)[C@H](CCCCN)NC(=O)[C@H](CSSC[C@H](NC(=O)[C@H](CCC(=O)O)NC(=O)[C@H](C(C)C)NC(=O)[C@H](CO)NC(=O)[C@H](Cc4ccc(O)cc4)NC(=O)[C@H](CO)NC1=O)C(=O)N[C@@H](CCCCN)C(=O)N[C@@H](CCC(N)=O)C(=O)N[C@@H](CCCCN)C(=O)N3)NC(=O)[C@H](CCCCN)NC(=O)[C@H](CCCCN)NC(=O)[C@H](CC(N)=O)NC(=O)[C@H](CCCC)NC2=O` [Compound 144] (H-P[Nle]E[Nle]RCSYSVECKQKCLAAIGSIFGKC[Nle]NKKCKCYPR-OH; disulfide 6-27, 12-32, 16-34): the IC50 amounted to 0.739 nM.

For `CCCC[C@H](NC(=O)[C@@H]1CCCN1)C(=O)N[C@@H](CCC(=O)O)C(=O)N[C@@H](CCCC)C(=O)N[C@@H](CCCNC(=N)N)C(=O)N[C@H]1CSSC[C@@H]2NC(=O)[C@H](CCCCN)NC(=O)CNC(=O)[C@H](Cc3ccccc3)NC(=O)[C@H]([C@@H](C)CC)NC(=O)[C@H](CO)NC(=O)CNC(=O)[C@H]([C@@H](C)CC)NC(=O)[C@H](C)NC(=O)[C@H](C)NC(=O)[C@H](CC(C)C)NC(=O)[C@@H]3CSSC[C@@H](C(=O)N[C@@H](Cc4ccc(O)cc4)C(=O)N4CCC[C@H]4C(=O)N[C@@H](CCCNC(=N)N)C(=O)N[C@@H](C)C(=O)N[C@@H](CCCCN)C(=O)O)NC(=O)[C@H](CCCCN)NC(=O)[C@H](CSSC[C@H](NC(=O)[C@H](CCC(=O)O)NC(=O)[C@H](C(C)C)NC(=O)[C@H](CO)NC(=O)[C@H](C)NC(=O)[C@H](CO)NC1=O)C(=O)N[C@@H](CCCCN)C(=O)N[C@@H](CCC(N)=O)C(=O)N[C@@H](CCCCN)C(=O)N3)NC(=O)[C@H](CCCCN)NC(=O)[C@H](CCCCN)NC(=O)[C@H](CC(N)=O)NC(=O)[C@H](CCCC)NC2=O` [Compound 130] (H-P[Nle]E[Nle]RCSASVECKQKCLAAIGSIFGKC[Nle]NKKCKCYPRAK-OH; disulfide 6-27, 12-32, 16-34), the IC50 is 0.529 nM.

Turning to `CCCC[C@H](NC(=O)[C@@H](N)CC(N)=O)C(=O)N[C@@H](CC(=O)O)C(=O)N[C@@H](CCSC)C(=O)N[C@@H](CCCNC(=N)N)C(=O)N[C@H]1CSSC[C@@H]2NC(=O)[C@H](CCCCN)NC(=O)CNC(=O)[C@H](Cc3ccccc3)NC(=O)[C@H]([C@@H](C)CC)NC(=O)[C@H](CO)NC(=O)CNC(=O)[C@H]([C@@H](C)CC)NC(=O)[C@H](C)NC(=O)[C@H](CCCCN)NC(=O)[C@H](CC(C)C)NC(=O)[C@@H]3CSSC[C@@H](C(=O)N[C@@H](Cc4ccc(O)cc4)C(=O)N4CCC[C@H]4C(=O)N[C@@H](CCCNC(=N)N)C(N)=O)NC(=O)[C@H](CCCCN)NC(=O)[C@H](CSSC[C@H](NC(=O)[C@H](CCC(=O)O)NC(=O)[C@H](C(C)C)NC(=O)[C@H](CO)NC(=O)[C@H](C)NC(=O)[C@H](CO)NC1=O)C(=O)N[C@@H](CCCCN)C(=O)N[C@@H](CCC(N)=O)C(=O)N[C@@H](CCCCN)C(=O)N3)NC(=O)[C@H](CCCCN)NC(=O)[C@H](CCCCN)NC(=O)[C@H](CC(N)=O)NC(=O)[C@H](CCSC)NC2=O` [Compound 14] (H-N[Nle]DMRCSASVECKQKCLKAIGSIFGKCMNKKCKCYPR-NH2; disulfide 6-27, 12-32, 16-34), the IC50 was found to be 0.16 nM.

Consider `CCCC[C@@H]1NC(=O)[C@@H]2CSSC[C@H](NC(C)=O)C(=O)N[C@@H](CO)C(=O)N[C@@H](C)C(=O)N[C@@H](CO)C(=O)N[C@@H](C(C)C)C(=O)N[C@@H](CCC(=O)O)C(=O)N[C@H]3CSSC[C@H](NC(=O)[C@H](CCCCN)NC(=O)[C@H](CCCCN)NC(=O)[C@H](CC(N)=O)NC1=O)C(=O)N[C@@H](CCCCN)C(=O)N[C@H](C(=O)N[C@@H](Cc1ccc(O)cc1)C(N)=O)CSSC[C@H](NC(=O)[C@H](CCCCN)NC(=O)[C@H](CCC(N)=O)NC(=O)[C@H](CCCCN)NC3=O)C(=O)N[C@@H](CC(C)C)C(=O)N[C@@H](CCCCN)C(=O)N[C@@H](C)C(=O)N[C@@H]([C@@H](C)CC)C(=O)NCC(=O)N[C@@H](CO)C(=O)N[C@@H]([C@@H](C)CC)C(=O)N[C@@H](Cc1ccccc1)C(=O)NCC(=O)N[C@@H](CCCCN)C(=O)N2` [Compound 112] (Ac-CSASVECKQKCLKAIGSIFGKC[Nle]NKKCKCY-NH2; disulfide 1-22, 7-27, 11-29), for which the IC50 is 1.7 nM.

For the molecule `CC[C@H](C)[C@@H]1NC(=O)[C@H](C)NC(=O)[C@H](CC(=O)O)NC(=O)[C@H](CCCCN)NC(=O)[C@@H]2CSSC[C@@H](C(=O)N[C@@H](Cc3ccc(O)cc3)C(=O)N3CCC[C@H]3C(=O)N[C@@H](CCCNC(=N)N)C(=O)O)NC(=O)[C@H](CCCCN)NC(=O)[C@@H]3CSSC[C@H](NC(=O)[C@H](CCC(=O)O)NC(=O)[C@H](C(C)C)NC(=O)[C@H](CO)NC(=O)[C@H](C)NC(=O)[C@H](CO)NC(=O)[C@@H](NC(=O)[C@H](CCCNC(=N)N)NC(=O)[C@H](CCSC)NC(=O)[C@H](CC(=O)O)NC(=O)[C@H](CCSC)NC(=O)[C@@H](N)CC(N)=O)CSSC[C@H](NC(=O)[C@H](CCCCN)NC(=O)CNC(=O)[C@H](Cc4ccccc4)NC(=O)[C@H]([C@@H](C)CC)NC(=O)[C@H](CO)NC(=O)CNC1=O)C(=O)N[C@@H](CCSC)C(=O)N[C@@H](CC(N)=O)C(=O)N[C@@H](CCCCN)C(=O)N[C@@H](CCCCN)C(=O)N3)C(=O)N[C@@H](CCCCN)C(=O)N[C@@H](CCC(N)=O)C(=O)N[C@@H](CCCCN)C(=O)N2` [Compound 10] (H-NMDMRCSASVECKQKCKDAIGSIFGKCMNKKCKCYPR-OH; disulfide 6-27, 12-32, 16-34), the IC50 was 0.57 nM.
